The values that follow come from patent publication US8541365B2, “Dendrimeric compounds comprising amino acids, hyperbranched core compound, process for preparation of dendrimeric compounds comprising amino acids and hyperbranched core compound, and use thereof” (Instytut Chemii Organicznej, Polska Akademia Nauk, priority 2008, dated 2013).

Read-outs that look alike come from different tables or passages of the source.

One experiment relates to S. aureus ATCC 25923. It is filed as cell-based, Staphylococus aureus subsp. aureus. The settings on record: S. aureus ATCC 25923; microdilution in CAMHB, 18 h at 35° C. The method, then: (§1) Titration plates with a, b, d strains were incubated for 18 h at 35° C. under aerobic conditions, and the c strain was incubated for 18 h at 33° C. under aerobic conditions.
b) Staphylococus aureus subsp. aureus ATCC 25923,
On the technique in general: Dilution methods test growth across graded concentrations, often in twofold steps.

A further experiment has as its system S. aureus ATTC 43300. Format: cell-based, Staphylococus aureus subsp. aureus. To be noted: S. aureus ATTC 43300; microdilution in CAMHB, 18 h at 33° C. As for the experimental part: as §1
c) Staphylococus aureus subsp. aureus ATCC 43300,

The test system of a further experiment is E. coli ATTC 25922. Format: cell-based, Escherichia coli. The settings on record: E. coli ATTC 25922; microdilution in CAMHB, 18 h at 35° C. The method, then: as §1
d) Escherichia coli ATCC 25922

For a further experiment, the system named is P. aeruginosa ATTC 27853. Format: cell-based, Pseudomonas aeruginosa. The settings on record: P. aeruginosa ATTC 27853; microdilution in CAMHB, 18 h at 35° C. As for the experimental part:
as §1
a) Pseudomonas aeruginosa ATCC 27853,

Another experiment deals with C. albicans ATCC 10231. As for the experimental part: Values of a minimal inhibitory concentration—MIC of compounds according to the invention for bacterial strains were assayed by a standard method of microdilutions on a liquid substrate (Clinical and Laboratory Standards Institute 2007. Methods for Dilution Antimicrobial Susceptibility Tests for Bacteria That Grow Aerobically. Approved Standard—Seventh Edition. M7-A7. Clinical and Laboratory Standards Institute, Wayne, Pa., USA).
A series of double dilutions of the tested compounds in DMSO was prepared. They were then diluted 95× in CAMHB (Cation Adjusted Mueller—Hinton Broth).
Bacteria were cultured for 24 h at 35° C. under aerobic conditions on a solid TSA (Triptic Soy Agar) medium. A volume of a proper test was 0.1 ml and was composed of: 0.005 ml of a saline suspension of bacteria at a density of 10^7 CFU/ml (final bacteria amount of 5×10^5/ml) and 0.095 ml of a tested compound CAMHB solution. Final concentrations of compounds in the proper test were (μg/ml): 128, 64, 32, 16, 8, 4, 2, 1.
e) C. albicans ATCC 10231.

Experiment [1] concerns human melanoma cells (MEW 155). The settings on record: MEW 155 cells, 3 days culture. The method, then:
Human melanoma cells (MEW 155) received from Institute of Oncology were inoculated on Petri dishes (Ø3 cm, Nunc) to the number of about 75 000, suspended in 3 ml of Eagle medium+10% FBS+antibiotics. Immediately after the inoculation, solutions of tested substances were added to the cells (a substance +20 ml PBS) at 0.5 ml per dish. After culturing for 3 days, numbers of cells (all, dead and alive) at each dish were determined with NucleoCounter apparatus (Chemometec).

As for `NC[C@H](NC(=O)OCc1ccccc1)C(=O)NCCNC(=O)CCN(CCCC[C@@H](C(=O)NCCc1c[nH]c2ccccc12)N(CCC(=O)NCCNC(=O)[C@H](CN)NC(=O)OCc1ccccc1)CCC(=O)NCCNC(=O)[C@H](CN)NC(=O)OCc1ccccc1)CCC(=O)NCCNC(=O)[C@H](CN)NC(=O)OCc1ccccc1` [Compound 105], the “Minimal inhibitory concentration (MIC)” value with S. aureus ATCC 25923 was 38 μM/L; with S. aureus ATTC 43300, 81 μM/L; in the experiment with E. coli ATTC 25922, 81 μM/L; in the experiment with P. aeruginosa ATTC 27853 it was 81 μM/L; in the experiment with C. albicans ATCC 10231 it was 81 μM/L. For the same compound, in experiment [1] (concentration 10.0 μMol dm^−3), the “Live cells (%)” value was found to be 97.7%.
For `CCCCCCCCCCCCNC(=O)[C@H](CCCN(CCC(=O)NCCNC(=O)[C@H](CCCCN)NC(=O)OCc1ccccc1Cl)CCC(=O)NCCNC(=O)[C@H](CCCCN)NC(=O)OCc1ccccc1Cl)N(CCC(=O)NCCNC(=O)[C@H](CCCCN)NC(=O)OCc1ccccc1Cl)CCC(=O)NCCNC(=O)[C@H](CCCCN)NC(=O)OCc1ccccc1Cl` [Compound 109], the “Minimal inhibitory concentration (MIC)” value with C. albicans ATCC 10231 came to 69 μM/L. Also, the “Live cells (%)” value in experiment [1] (concentration 25.7 μMol dm^−3) came to 1.5%.
Consider `NCCCC[C@H](NC(=O)OCc1ccccc1Cl)C(=O)NCCNC(=O)CCN(CCC(=O)NCCNC(=O)[C@H](CCCCN)NC(=O)OCc1ccccc1Cl)C[C@@H](C(=O)NCCc1c[nH]c2ccccc12)N(CCC(=O)NCCNC(=O)[C@H](CCCCN)NC(=O)OCc1ccccc1Cl)CCC(=O)NCCNC(=O)[C@H](CCCCN)NC(=O)OCc1ccccc1Cl` [Compound 98], for which the “Minimal inhibitory concentration (MIC)” value in the experiment on S. aureus ATCC 25923 stood at 0.95 μM/L; with S. aureus ATTC 43300 it was 8.06 μM/L; in the experiment with E. coli ATTC 25922, 12.3 μM/L; with P. aeruginosa ATTC 27853 it was 52 μM/L. In addition, the “Live cells (%)” value in experiment [1] (concentration 4.3 μMol dm^−3) came out at 97.7%.
